Several values for one entry are separate records, joined by “and”; a condition that tells them apart may be missing. Identical values can stand only once.
Assays:
Type in all cases: in vivo, human
[1] = test system: adolescent STGD1 patients; test: Clinical study (Phase 1b/2): ocular and systemic safety and tolerability
Description: (§1) The therapeutic effect of a compound of Formula (I), also known as Tinlarebant, was evaluated in a group of individuals with adolescent STGD. The treatment covered Phase 1b and Phase 2. Phase 1b included a 4-week treatment and a 14-day follow-up. Phase 2 included a 2-year treatment and 1-month follow-up. A total of 13 individuals received the treatment: 5 males and 8 females. All 13 individuals had STGD 1 aged 12-18 years old. All 13 individuals received the treatment of a compound of Formula (I), a RBP4 inhibitor.
(§2) The clinical study evaluated ocular and systemic safety and tolerability of the compound and determined the optimal dose, pharmacokinetics (PK), and […]. The study measured visual improvement by best corrected visual acuity (BCVA) test, self-reported visual questionnaire test, the change in lesion size by FAF, the change in retinal thickness and morphology by SD-OCT, the change in retinal sensitivity by microperimetry, and the change in quantitative AF. In addition, this study evaluated correlation between reduction in RBP4 and rate of lesion growth including change in autofluorescence.
In addition, the treatment was able to maintain 80%-90% RBP4 reduction from baseline throughout the study. All patients received at least 7 months of the treatment. […] Delayed dark adaptation, night vision impairment, and xanthopsia/chromatopsia were the only drug related ophthalmic adverse events.

[2] = test system: adolescent STGD1 patients; test: Clinical study: best corrected visual acuity (BCVA) test
From the text: In some embodiments, visual acuity may be evaluated with a logarithm of the minimum angle of resolution chart (log MAR chart). A log MAR chart comprises rows of letters that are used to estimate visual acuity. Zero log MAR may indicate standard vision, positive values may indicate poor vision and negative values may indicate good vision. In some embodiments, the best corrected visual acuity (BCVA) early treatment diabetic retinopathy study (ETDRS) letters score can be calculated with the following formula: […]
as §1, §2

[3] = test system: adolescent STGD1 patients; test: Clinical study: lesion size by fundus autofluorescence (FAF; DDAF/QDAF); details: for FAF lesion area: subject 3, right eye
From the text: Fundus autofluorescence (FAF) imaging is used as an endpoint in clinical trials. FAF is used to detect lesion growth with more than one timepoint of measurements. The change in lesion area measured by FAF can be plotted against time to calculate lesion growth rate, e.g., how fast or slow a patient's macula or retina is degenerating as compared to placebo. FAF imaging is used to compare the rate of anatomical or structural deterioration or change to evaluate a drug or treatment's therapeutic effect, e.g., reduced worsening of the retina degeneration.
In some embodiments, fundus autofluorescence (FAF) is used for evaluation of ocular disease or visual function. In some embodiments, one or more retina images of FAF is used for detection of atrophic areas. In some embodiments, one or more retina images of FAF is used to gain detailed insight into the health of the retinal pigment epithelium (RPE). In some embodiments, one or more images of FAF may be high-contrast retina images. In some embodiments, two types of decreased autofluorescence (DAF) may be quantified. In some embodiments, one type of DAF may be definite DAF (DDAF) which includes an area having a level of darkness being defined as qualitatively definite. In some embodiments, the other type of DAF may be questionable DAF (QDAF) which includes an area having a level of darkness being defined as qualitatively questionable. In some embodiments, the size of decreased autofluorescence (DAF) lesion may be the sum of all DDAF and QDAF. In some embodiments, DAF may be expressed as an area in square millimeters (mm^2).
as §1, §2

[4] = test system: adolescent STGD1 patients; test: Clinical study: retinal thickness by SD-OCT (CST, MST, OST)
From the text: (§3) In some embodiments, spectral domain-optical coherence tomography (SD-OCT) is used for evaluation of ocular disease or visual function. In some embodiments, SD-OCT provides in vivo cross-sectional and […] visualization of the retina and the RPE. In some embodiments, SD-OCT is used to detect the presence of RPE atrophy. In some embodiments, SD-OCT is used to evaluate ellipsoid zone (EZ) defect width. In some embodiments, the EZ line provides information on the integrity of the photoreceptors. In some embodiments, the EZ line provides useful information in early disease. In some embodiments, an image of SD-OCT is used to evaluate the central subfield retina thickness (CST). In some embodiments, an image of SD-OCT is used to evaluate the middle subfield retina thickness (MST). In some embodiments, an image of SD-OCT is used to evaluate the outer subfield retina thickness (OST). The therapeutic effect of a compound of Formula (I), also known as Tinlarebant, was evaluated in a group of individuals with adolescent STGD. The treatment covered Phase 1b and Phase 2. Phase 1b included a 4-week treatment and a 14-day follow-up. Phase 2 included a 2-year treatment and 1-month follow-up. A total of 13 individuals received the treatment: 5 males and 8 females. All 13 individuals had STGD 1 aged 12-18 years old. All 13 individuals received the treatment of a compound of Formula (I), a RBP4 inhibitor. The clinical study evaluated ocular and systemic safety and tolerability of the compound and determined the optimal dose, pharmacokinetics (PK), and […]. The study measured visual improvement by best corrected visual acuity (BCVA) test, self-reported visual questionnaire test, the change in lesion size by FAF, the change in retinal thickness and morphology by SD-OCT, the change in retinal sensitivity by microperimetry, and the change in quantitative AF. In addition, this study evaluated correlation between reduction in RBP4 and rate of lesion growth including change in autofluorescence.

[5] = test system: adolescent STGD1 patients; test: Clinical study: ellipsoid zone (EZ) defect width by SD-OCT
From the text: as §3

[6] = test system: adolescent STGD1 patients; test: Clinical study: quantitative autofluorescence (qAF)
From the text: In some embodiments, a method for measuring quantitative autofluorescence (qAF) is used or evaluation of ocular disease or visual function. In some embodiments, the qAF method may incorporate an internal fluorescent reference to account for variable laser power and detector sensitivity. In some embodiments, an intensity of AF may be calculated against the calibrated internal fluorescence reference standard in the optical pathway.
as §1, §2

[7] = subject 11, both eyes, phase 2 week 1 vs week 9
[8] = subject 3, left eye, phase 2 baseline
[9] = subject 3, left eye, phase 2 month 6
[10] = subject 4, left eye, phase 2 baseline
[11] = subject 4, left eye, phase 2 month 6

## CC(=O)N1CCc2c(C(=O)N3CCC(c4ccc(F)c(F)c4C(F)(F)F)CC3)n[nH]c2C1 [Tinlarebant]
[1]; 5 mg daily, adolescent STGD1 patients
  safety and tolerability: safe and well tolerated
[1]; 13 patients
  adverse events requiring discontinuation of treatment: no adverse events required discontinuation of treatment
  vital signs, physical exams, electrocardiogram (ECG), organ functions: No clinical significant findings
[1]; 13 patients, at least 7 months of treatment
  severe adverse events: No severe adverse events
[1]; after approximately 7 months of treatment (1 month Phase 1b, 6 months Phase 2)
  safety and tolerability: safe and well tolerated
[1]; all instances, 13 patients
  severity of delayed dark adaptation, night vision impairment, xanthopsia/chromatopsia (drug related ophthalmic adverse events): mild and transient
[1]; human, in vivo
  symptoms in patients with delayed dark adaptation: mostly asymptomatic
[1]; related adverse event
  Delayed Dark Adaptation: Frequency (subject): 8/13
  Night Vision Impairment: % Recovered: 0/1
  Night Vision Impairment: Frequency (subject): 1/13
  Xanthopsia/Chromatopsia: Frequency (subject): 9/13
[2]; cohort of 13
  patients with visual improvement in at least one eye (BCVA): 8 out of the 13
  patients with visual improvement in both eyes (BCVA): 2 patients
[2]; cohort, approximately 7 months
  visual improvement, summary: Majority of the patients showed visual improvement in at least one eye
[2]; left eye, cohort
  BCVA average letters of gain: 1.9±1.32 letters
[2]; right eye, cohort
  BCVA average letters of loss: −2.8±1.85 letters
[2]; subject 4, both eyes
  BCVA ETDRS letters gained: 3 ETDRS letters
[2]; subject 4, both eyes, intermediate value in 7-month treatment period
  BCVA letters: 50 letters
[2]; subject 4, both eyes, last value in 7-month treatment period
  BCVA letters: 53 letters
[2]; subject 4, both eyes, start of 7-month treatment period
  BCVA letters: 45 letters
[2]; subject 10, both eyes, approximately 7-month treatment
  BCVA letters gained: 9 letters
[2]; subject 11, left eye
  BCVA letters gained: 6 letters
[2]; subject 11, right eye
  BCVA change: no change
[3]; cohort
  autofluorescence expansion (FAF), trend: trend of preventing or slowing autofluorescence expansion
  patients who maintained no DDAF lesion growth: 12 of the 13
  patients with no change or reduction in QDAF area in one or both eyes: 6 of 11
[3]; cohort, listed as compound of Formula (I)
  autofluorescence expansion (FAF), trend: trend in preventing or slowing autofluorescence expansion
[3]; left eye, cohort
  average change in QDAF area: 0.1±0.11 mm^2
[3]; right eye, cohort
  average change in QDAF area: 0.3±0.11 mm^2
[3]; subject 3, either eye, phase 2 week 1 vs week 9
  area size of QDAF: no increase
[3]; phase 2 baseline
  FAF lesion area: 2.7 mm^2
[3]; phase 2 month 6
  FAF lesion area: 2.7 mm^2
[3]; subject 4, left eye, Phase 2 Baseline vs Month 6 (FIG. 2A)
  QDAF in size: stabilization
[3]; subject 4, left or right eye, phase 2 week 1 vs week 9
  QDAF in size: no increase
[3]; [7]
  QDAF/DDAF change: transition of QDAF to DDAF
[4]; cohort
  patients with improvement (increase in thickness) or no change in OST in both eyes: 4 patients
  patients with no change or growth in MST in at least one eye: 5 patients
  patients with no to little change in CST in at least one eye: 5 patients
[4]; cohort means, Table 4
  CST change, Left Eye (mean ± SD, μm): −8.83 ± 1.91 μm
  CST change, Right Eye (mean ± SD, μm): −10.15 ± 1.5 μm
  MST change, Left Eye (mean ± SD, μm): −7.92 ± 2.13 μm
  MST change, Right Eye (mean ± SD, μm): −6.77 ± 1.74 μm
  OST change, Left Eye (mean ± SD, μm): −7.60 ± 2.62 μm
  OST change, Right Eye (mean ± SD, μm): −8.08 ± 2.47 μm
[4]; left eye, cohort
  CST average thinning: 7.6±2.14 microns
  MST average thinning: 7.2±2.54 microns
  OST average thinning: 3.11±3.5 microns
[4]; right eye, cohort
  CST average thinning: 10.27±2.2 microns
  MST average thinning: 6.27±2.03 microns
  OST average thinning: 3.8±3.08 microns
[4]; [8]
  average thickness: center: 97 micron
  average thickness: central max: 202 micron
  average thickness: central min: 97 micron
  average thickness: marker: 97 micron
[4]; [9]
  average thickness: center: 112 micron
  average thickness: central max: 216 micron
  average thickness: central min: 104 micron
  average thickness: marker: 112 micron
[4]; subject 3, overall
  change in CST, MST, or OST: little to no change
[4]; subject 4, both eyes, especially left, phase 2 week 1 vs week 9
  change of OST: increase
[4]; subject 4, either eye, phase 2 week 1 vs week 9
  change of MST: little to no change
[4]; [10]
  average thickness: center: 63 micron
  average thickness: central max: 218 micron
  average thickness: central min: 57 micron
  average thickness: marker: 60 micron
[4]; [11]
  average thickness: center: 58 micron
  average thickness: central max: 199 micron
  average thickness: central min: 54 micron
  average thickness: marker: 56 micron
[4]; subject 11, both eyes (one value per eye, eye not assigned)
  retinal thickness growth (stated after OST): 15 microns and 16 microns
[4]; [7]
  change of OST: increase
[4]; subject 11, either eye, phase 2 week 1 vs week 9
  change of CST or MST: little to no change
[5]; cohort
  patients with improvement in EZ defect width (narrowing) in at least one eye: 5 patients
  patients with improvement in EZ defect width in both eyes: 3 patients
[5]; cohort, summary
  EZ defect width, trend: trend in reducing EZ defect width
[5]; left eye, cohort
  EZ defect width average increase: 0.48±0.26 mm
[5]; right eye, cohort
  EZ defect width average increase: 0.39±0.27 mm
[5]; subject 3, especially left eye, phase 2 week 1 vs week 9
  ellipsoid zone (EZ) width change: decreased in both eyes
[5]; subject 3, left eye
  EZ defect width reduction: 0.20 mm
[5]; [8]
  EZ defect width: 2.91 mm
[5]; [9]
  EZ defect width: 2.71 mm
[5]; subject 3, right eye
  EZ defect width reduction: 0.13 mm
[5]; subject 4, right eye, Phase 2 Baseline
  EZ defect width: 1.79 mm
[5]; subject 4, right eye, Phase 2 Month 6
  EZ defect width: 1.85 mm
[5]; subject 6, left eye
  EZ defect width reduction: 0.22 mm
[5]; subject 6, right eye
  EZ defect width reduction: 0.27 mm
[5]; [7]
  EZ width change: stabilized
[5]; subject 11, left eye, Phase 2 Baseline
  EZ defect width: 2.20 mm
[5]; subject 11, left eye, Phase 2 Month 6
  EZ defect width: 2.29 mm
[6]; subject 3, both eyes, especially left, phase 2 week 1 vs week 9
  autofluorescence (AF) based on quantitative AF: decrease
[6]; [8]
  qDAF value: 351
[6]; [9]
  qDAF value: 268
[6]; subject 3, right eye, phase 2 baseline
  qDAF value: 335
[6]; subject 3, right eye, phase 2 month 6
  qDAF value: 275

Source: US20250241902A1, “METHODS, COMPOSITIONS AND SYSTEMS FOR EVALUATION OF VISUAL FUNCTION” (BELITE BIO, INC, priority 2022, published 2025)
